{"source": "patent US20260048081A1", "about": "“COMBINED TREATMENT COMPOSITION FOR TUMOR TREATMENT AND COMBINED TREATMENT METHOD” (ADVACCINE (SUZHOU) BIOPHARMACEUTICALS CO., LTD., priority 2022, published 2026)", "key": {"[1]": {"system": "BALB/c mouse spleen cells", "experiment": "In vitro stimulation of mouse spleen cells to secrete TNF-α", "format": "cell-based", "conditions": "FIG. 9; stimulated 18-20 h; research-grade versus pharmaceutical grade reagent", "method": "Drug preparation: The preparation and use of the research-grade reagents CpG1826 and R848 (water soluble) were the same as those in Example 1; the pharmaceutical agent R848 (lipid soluble) was dissolved in DMSO to prepare a 10 mg/mL stock solution, 0.1 mL of the stock solution was taken for each administration, the volume was brought to 1 mL, and a 1 mg/mL solution was prepared; CpG1018 was prepared at 1 mg/ml with PBS before each administration.\nThe spleens of three blank BABL/c mice were added to a 30 mm cell culture dish, 1640 medium was added, and the resulting mixture was ground, filtered through a copper screen, and centrifuged at 1500 rpm for 3 min. The supernatant was discarded, 2 mL of a red blood cell lysis buffer was added, and the samples were left to stand for 2 min, terminated with 4 mL of 1640+10% FBS, and centrifuged at 1500 rpm for 3 min. The supernatant was discarded, the samples were resuspended in 1640+10% FBS, and the cells were counted. The cells were plated in a 96-well cell culture plate at 2×10^6 cells/well, with 200 μL of culture medium per well. […] After the cells were stimulated for 18-20 h, the cell culture supernatant was collected, and the expression of cytokines in each 10^6 mouse spleen cells was determined by using a mouse TNF-α detection kit (purchased from NeoBioscience Technology Co., Ltd., Catalog No. EMC102a.96) according to the instructions."}, "[2]": {"system": "B16-F10 mouse melanoma", "experiment": "B16-F10 mouse melanoma model, small-volume tumors (Example 9)", "format": "in vivo", "conditions": "4 mg/kg cisplatin, intraperitoneal injection, days 7, 14, 21", "method": "This example further explored the effect of cisplatin combined with CR108 adjuvant on mouse melanoma. A B16-F10 mouse melanoma model was constructed by subcutaneously inoculating tumor cells on the right side of the back of the mice proximal to the hip position at 3×10^5 cells/mouse, […]\nSpecific mouse administration groups were as follows: (1) a PBS negative control group, (2) CDDP^Lo (2 μg/kg cisplatin), (3) CR108 (50 μg/mouse CpG1018 and 50 μg/mouse water-soluble R848), (4) CDDP^Lo+CR108 (2 μg/kg cisplatin, 50 μg/mouse CpG1018 and 50 μg/mouse water-soluble R848), (5) CDDP^Lo+C′ (2 μg/kg cisplatin and 50 μg/mouse CpG1018), (6) CDDP^Lo+R (2 μg/kg cisplatin and 50 μg/mouse water-soluble R848), and (7) CDDP^Hi (4 mg/kg cisplatin, regular cisplatin chemotherapeutic drug dose). Except for Group (7), which received a high dose of cisplatin by intraperitoneal injection, all other groups were administered by subcutaneous injection near the tumor. […]\nOn day 4 after the last administration, mice were sacrificed, tumor tissues of the mice were separated and weighed using an analytical balance; the weights were recorded, and the tumors were photographed for recording. […]"}, "[3]": {"system": "4T1 breast cancer cell", "format": "in vivo", "conditions": "2 μg/kg cisplatin (CDDP alone printed 2 g/kg), 50 μg/mouse CpG, 50 μg/mouse R848"}, "[4]": {"system": "B16-F10 mouse melanoma", "experiment": "Large-volume B16-F10 melanoma model, intratumoral injection: tumor volume and survival (Examples 10-13)", "format": "in vivo", "method": "To establish a B16-F10 mouse melanoma model, the tumor cells were inoculated at 3×10^5 cells/mouse. Once the tumors reached an appropriate size with an average of about 200 mm^3, suitable mice were selected based on the tumor size and body weight and given drugs according to the following groups. […] Specific groups were as follows: Group G1, normal saline (NS) control group: mice were treated once a week; Group G2: mice received an intratumoral injection of CDDP, followed by an intratumoral injection of CR108 two days later, once a week; Group G3: for each administration cycle, mice first received an intratumoral injection of CDDP, followed by an intratumoral injection of CR108 two days later, which was repeated every other day, with four administrations constituting one cycle, and after a one-week interruption, the next administration cycle was repeated; and Group G4: after CDDP and CR108 were mixed, mice received an intratumoral injection of the mixture, twice a week. After the administration was completed according to the flowchart, the administration was stopped, and the tumor size and physiological states of the mice were monitored during this period. When the tumor volume of each mouse exceeded 2000 mm^3 for the first time or the body weight of the animal was less than 80% of the body weight before the first administration, it was considered an ethical death, and the animal was euthanized. The remaining mice continued to be observed.\nExperimental groups were as follows: (1) a normal saline control group, with the same administration protocol as that in Group G1 of Example 10; (2) CDDP^Hi+CR108 (at a cisplatin dose of 0.4 mg/kg), with the same administration protocol as that in Group G2 of Example 10 (qw); (3) CDDP^Lo+CR108 (at a cisplatin dose of 2 μg/kg), with the same administration protocol as that in Group G3 of Example 10 (qod); and (4) CDDP^Hi+CR108 (0.4 mg/kg cisplatin), with the same administration protocol as that in Group G3 of Example 10 (qod); the dose of CR108 used in each group was 50 μg/mouse CpG1018 and 50 μg/mouse water-soluble R848. […]"}}}
{"smiles": "CCOCc1nc2c(N)nc3ccccc3c2n1CC(C)(C)O", "note": "[R848 (water soluble)]", "values": [{"measurement": "levels of TNF-α cytokines produced from mouse spleen cells stimulated in vitro", "setting": "[1]", "result": "comparable"}]}
{"smiles": "[NH2][Pt]([NH2])([Cl])[Cl]", "note": "[CDDP, cisplatin]", "values": [{"measurement": "mouse death during the administration period", "setting": "[2]", "result": "One mouse"}, {"measurement": "tumor volume growth curve", "setting": "[3]; Example 7, FIG. 12, 6 mice per group", "result": "grew rapidly"}, {"measurement": "tumor weight", "setting": "[3]; Example 7, FIG. 13, end of the experiment", "result": "too large and overweight"}, {"measurement": "tumor volume compared with the normal saline control group", "setting": "[4]; Example 12, FIG. 31, day 28, CDDP 4 mg/kg once a week, CR108 G3 protocol, CDDP+CR108 0.4 mg/kg cisplatin G3 protocol", "result": "significantly lower than that in the normal saline control group"}, {"measurement": "day on which all mice were euthanized due to tumor volume exceeding 2000 mm^3", "setting": "[4]; Example 12, 4 mg/kg CDDP once a week", "result": 36, "unit": "days"}, {"measurement": "median survival time", "setting": "[4]; Example 12, CDDP 4 mg/kg once a week, CR108 alone G3 protocol, CDDP+CR108 0.4 mg/kg CDDP, not counted on day 45, saline control 26 days", "result": 36, "unit": "days"}]}
